Laboratory results taken from ChEMBL document CHEMBL1135368, “The discovery of small molecule carbamates as potent dual alpha(4)beta(1)/alpha(4)beta(7) integrin antagonists” (Bioorg Med Chem Lett, 2002).
Starred links: 1 amine or outer side, 2 acyl side, 3 side chain; linkers in the order of their positions; H or OH if unused. Residues, ends and D or L forms follow the SMILES beside them. Groups on a side chain read outwards from the residue. *: point of attachment. Pyrrolidide = C1CCN(*)C1; CO = O=C([*:1])[*:2]; Ms = CS(=O)(=O)*

How the values were obtained:
[1] = system: Rattus norvegicus; test: Plasma clearance value at intravenous dose of 1 mg/kg (2 mg/kg po (cassette dosing)) in Dawley rat; format: ADME, organism-based; design: dose 1 mg/kg; settings: in vivo
[2] = biological target: Integrin alpha-4/beta-1 (Homo sapiens, UniProt P05556+P13612); test: Alpha4-beta1 integrin binding affinity was assessed by measuring the reduction in binding of [125I]VCAM-Ig to a suspension of Jurkat cells (a human T cell line alpha-4-beta-1-beta-7); format: cell-based
[3] = biological target: T1, Integrin alpha-4/beta-7 (Homo sapiens, UniProt P13612+P26010); test: Alpha4-beta7 integrin binding affinity was determined in duplicate by a radioligand binding assay using [125I]-VCAM-Ig and a suspension of RPMI-8866 cells (a human B cell line alpha-4-beta-1-beta-7+); format: cell-based
T1 sequence (P13612 whole entry): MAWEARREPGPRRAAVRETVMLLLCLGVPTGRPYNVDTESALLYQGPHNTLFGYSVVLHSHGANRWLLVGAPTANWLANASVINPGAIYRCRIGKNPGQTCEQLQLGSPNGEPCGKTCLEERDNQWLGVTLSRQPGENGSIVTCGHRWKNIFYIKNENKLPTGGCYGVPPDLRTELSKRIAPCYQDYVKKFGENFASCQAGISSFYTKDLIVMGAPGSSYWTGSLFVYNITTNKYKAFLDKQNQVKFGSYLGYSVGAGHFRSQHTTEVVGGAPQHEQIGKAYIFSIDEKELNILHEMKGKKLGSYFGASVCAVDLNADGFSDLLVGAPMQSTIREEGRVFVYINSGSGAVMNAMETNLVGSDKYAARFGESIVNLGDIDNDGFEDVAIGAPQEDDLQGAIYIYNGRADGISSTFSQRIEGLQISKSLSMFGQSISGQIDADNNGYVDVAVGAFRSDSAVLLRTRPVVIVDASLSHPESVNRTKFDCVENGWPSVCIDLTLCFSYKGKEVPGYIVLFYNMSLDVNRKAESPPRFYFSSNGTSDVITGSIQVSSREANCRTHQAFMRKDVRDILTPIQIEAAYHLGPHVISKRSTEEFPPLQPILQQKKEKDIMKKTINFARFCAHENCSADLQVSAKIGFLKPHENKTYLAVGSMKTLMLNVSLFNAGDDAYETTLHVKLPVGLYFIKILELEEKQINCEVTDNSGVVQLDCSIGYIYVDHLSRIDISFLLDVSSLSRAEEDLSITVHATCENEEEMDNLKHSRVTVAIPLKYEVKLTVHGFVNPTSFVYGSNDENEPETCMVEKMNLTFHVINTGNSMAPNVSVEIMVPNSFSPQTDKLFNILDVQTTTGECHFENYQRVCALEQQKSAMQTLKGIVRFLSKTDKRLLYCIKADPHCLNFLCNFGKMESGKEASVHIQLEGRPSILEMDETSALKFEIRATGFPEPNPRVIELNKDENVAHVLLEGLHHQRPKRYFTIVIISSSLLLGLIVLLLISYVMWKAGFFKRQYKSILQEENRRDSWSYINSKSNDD
T1 sequence (P26010 whole entry): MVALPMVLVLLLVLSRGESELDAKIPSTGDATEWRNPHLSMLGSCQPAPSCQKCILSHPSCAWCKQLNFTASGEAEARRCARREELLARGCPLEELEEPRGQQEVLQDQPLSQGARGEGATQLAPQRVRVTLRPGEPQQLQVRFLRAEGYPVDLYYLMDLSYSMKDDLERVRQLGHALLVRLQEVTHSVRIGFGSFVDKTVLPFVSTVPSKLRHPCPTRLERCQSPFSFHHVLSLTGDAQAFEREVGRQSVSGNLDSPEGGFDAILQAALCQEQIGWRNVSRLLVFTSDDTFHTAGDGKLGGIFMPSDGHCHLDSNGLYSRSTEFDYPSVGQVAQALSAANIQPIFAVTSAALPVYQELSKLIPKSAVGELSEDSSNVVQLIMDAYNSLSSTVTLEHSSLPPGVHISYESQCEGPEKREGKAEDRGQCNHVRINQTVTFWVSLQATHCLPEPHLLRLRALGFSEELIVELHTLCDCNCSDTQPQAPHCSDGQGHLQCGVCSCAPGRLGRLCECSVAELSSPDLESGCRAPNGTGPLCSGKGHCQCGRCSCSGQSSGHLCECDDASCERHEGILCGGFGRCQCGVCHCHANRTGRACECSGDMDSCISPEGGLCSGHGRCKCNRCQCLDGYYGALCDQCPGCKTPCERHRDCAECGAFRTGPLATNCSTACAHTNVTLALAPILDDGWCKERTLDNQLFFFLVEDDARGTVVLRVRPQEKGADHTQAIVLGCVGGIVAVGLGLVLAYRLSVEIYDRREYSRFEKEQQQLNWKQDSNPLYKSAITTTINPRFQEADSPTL

[4] = Tested for plasma half life period in rat (0-8 hr); format: ADME, organism-based
[5] = biological target: T1, Integrin alpha-4/beta-7; test: Inhibition of [125I]VCAM-Ig binding to Alpha4-beta7 integrin of RPMI-8866 cells; format: cell-based
[6] = biological target: T1, Integrin alpha-4/beta-7; test: Inhibition of [125I]VCAM-Ig binding to Alpha4-beta7 integrin of RPMI-8866 cells at […] (inactive); format: cell-based
[7] = system: Rattus norvegicus; test: Plasma clearance value at intravenous dose of 1 mg/kg (2 mg/kg po (cassette dosing) in Dawley rat; format: ADME, organism-based; design: dose 1 mg/kg; settings: in vivo

Integrin alpha-4/beta-1, sequence (P05556 whole entry, one chain of several): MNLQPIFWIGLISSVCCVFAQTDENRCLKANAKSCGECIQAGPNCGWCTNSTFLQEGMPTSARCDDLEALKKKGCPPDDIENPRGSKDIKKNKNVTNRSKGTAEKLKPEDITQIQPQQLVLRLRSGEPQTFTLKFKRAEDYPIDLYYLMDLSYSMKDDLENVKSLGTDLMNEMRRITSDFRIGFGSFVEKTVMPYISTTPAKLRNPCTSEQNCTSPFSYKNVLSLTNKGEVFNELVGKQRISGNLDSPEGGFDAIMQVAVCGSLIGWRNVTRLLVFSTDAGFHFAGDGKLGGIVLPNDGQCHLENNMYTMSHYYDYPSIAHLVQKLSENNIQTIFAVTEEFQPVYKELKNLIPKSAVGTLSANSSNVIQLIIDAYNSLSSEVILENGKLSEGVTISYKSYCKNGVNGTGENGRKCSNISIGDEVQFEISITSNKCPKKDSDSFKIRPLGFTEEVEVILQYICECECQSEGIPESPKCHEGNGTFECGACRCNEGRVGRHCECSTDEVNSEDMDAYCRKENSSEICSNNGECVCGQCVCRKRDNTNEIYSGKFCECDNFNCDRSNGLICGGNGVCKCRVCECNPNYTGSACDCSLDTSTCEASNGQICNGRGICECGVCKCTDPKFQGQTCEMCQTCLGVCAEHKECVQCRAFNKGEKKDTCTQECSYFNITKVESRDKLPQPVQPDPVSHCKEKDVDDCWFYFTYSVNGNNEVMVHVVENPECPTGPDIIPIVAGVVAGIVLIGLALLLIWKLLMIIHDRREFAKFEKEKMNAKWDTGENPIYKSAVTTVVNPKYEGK

| IC50 [2] [nM] | IC50 [3] [nM] | SMILES | further results |
| --- | --- | --- | --- |
| 0.14 | 2.83 | O=C(O)[C@H](Cc1ccc(OC(=O)N2CCCC2)cc1)NC(=O)[C@@H]1CCCN1S(=O)(=O)c1ccccc1 | Clp [1]: 176 mL/min/kg; half-life [4]: 12 min |
| 0.37 | – | COc1ccc(C[C@H](NC(=O)[C@@H]2CCCN2S(=O)(=O)c2cc(Cl)cc(Cl)c2)C(=O)O)cc1 | IC50 [5]: 362 nM |
| 0.21 | 166 | O=C(O)[C@H](Cc1ccc(OCc2nnn[nH]2)cc1)NC(=O)[C@@H]1CCCN1S(=O)(=O)c1cc(Cl)cc(Cl)c1 | – |
| 0.28 | 62.5 | COCCOc1ccc(C[C@H](NC(=O)[C@@H]2CCCN2S(=O)(=O)c2cc(Cl)cc(Cl)c2)C(=O)O)cc1 | – |
| 0.22 | 58.6 | O=C(Oc1ccc(C[C@H](NC(=O)[C@@H]2CCCN2S(=O)(=O)c2cc(Cl)cc(Cl)c2)C(=O)O)cc1)C1CCCC1 | – |
| 0.41 | – | CC(C)(C)OC(=O)COc1cccc(C[C@H](NC(=O)[C@]2(C)CCCN2S(=O)(=O)c2cc(Cl)cc(Cl)c2)C(=O)O)c1 | IC50 [6]: Not Active |
| 0.34 | – | O=C(O)[C@H](Cc1ccc(O)cc1)NC(=O)[C@@H]1CCCN1S(=O)(=O)c1cc(Cl)cc(Cl)c1 | IC50 [5]: 820 nM |
| 1.11 | – | CCCCOc1ccc(C[C@H](NC(=O)[C@@H]2CCCN2S(=O)(=O)c2cc(Cl)cc(Cl)c2)C(=O)O)cc1 | IC50 [5]: 299 nM |
| 1.79 | – | CC(C)(C)Oc1cccc(C[C@H](NC(=O)[C@]2(C)CCCN2S(=O)(=O)c2cc(Cl)cc(Cl)c2)C(=O)O)c1 | IC50 [6]: Not Active |
| 0.45 | 43.2 | O=C(Oc1ccc(C[C@H](NC(=O)[C@@H]2CCCN2S(=O)(=O)c2cc(Cl)cc(Cl)c2)C(=O)O)cc1)c1ccccc1 | – |
| 0.26 | 13 | O=C(Oc1ccc(C[C@H](NC(=O)[C@@H]2CCCN2S(=O)(=O)c2cc(Cl)cc(Cl)c2)C(=O)O)cc1)c1ccc[nH]1 | – |
| 0.27 | – | CC(C)(C)Oc1ccc(C[C@H](NC(=O)[C@]2(C)CCCN2S(=O)(=O)c2cc(Cl)cc(Cl)c2)C(=O)O)cc1 | IC50 [5]: 647 nM |
| 0.21 | – | CC(C)(C)Oc1ccc(C[C@H](NC(=O)[C@@H]2CCCN2S(=O)(=O)c2cc(Cl)cc(Cl)c2)C(=O)O)cc1 | IC50 [5]: 116 nM |
| 0.22 | 62.4 | CC(C)N(C(=O)Oc1ccc(C[C@H](NC(=O)[C@]2(C)CCCN2S(=O)(=O)c2cc(Cl)cc(Cl)c2)C(=O)O)cc1)C(C)C | – |
| 3.65 | – | C[C@@]1(C(=O)N[C@@H](Cc2cccc(OC(=O)N3CCCC3)c2)C(=O)O)CCCN1S(=O)(=O)c1cc(Cl)cc(Cl)c1 | IC50 [6]: Not Active |
| 1.94 | 849 | O=C(O)[C@H](Cc1ccc(OCc2ccccc2)cc1)NC(=O)[C@@H]1CCCN1S(=O)(=O)c1cc(Cl)cc(Cl)c1 | – |
| 0.19 | 29.8 | CCN(CC)C(=O)Oc1ccc(C[C@H](NC(=O)[C@]2(C)CCCN2S(=O)(=O)c2cc(Cl)cc(Cl)c2)C(=O)O)cc1 | – |
| 0.13 | 3.51 | C[C@@]1(C(=O)N[C@@H](Cc2ccc(OC(=O)N3CCOCC3)cc2)C(=O)O)CCCN1S(=O)(=O)c1cc(Cl)cc(Cl)c1 | Clp [1]: 50 mL/min/kg |
| 0.13 | 211 | CC(C)(C)OC(=O)COc1ccc(C[C@H](NC(=O)[C@@H]2CCCN2S(=O)(=O)c2cc(Cl)cc(Cl)c2)C(=O)O)cc1 | – |
| 0.26 | 246 | N#CCOc1ccc(C[C@H](NC(=O)[C@@H]2CCCN2S(=O)(=O)c2cc(Cl)cc(Cl)c2)C(=O)O)cc1 | – |
| 0.13 | 1.92 | O=C(O)[C@H](Cc1ccc(OC(=O)N2CCCC2)cc1)NC(=O)[C@@H]1CCCN1S(=O)(=O)c1cc(Cl)cc(Cl)c1 | – |
| 0.17 | 5.26 | C[C@@]1(C(=O)N[C@@H](Cc2ccc(OC(=O)N3CCCC3)cc2)C(=O)O)CCCN1S(=O)(=O)c1cc(Cl)cc(Cl)c1 | Clp [7]: 27 mL/min/kg |
| 0.18 | 51.4 | CC(=O)COc1ccc(C[C@H](NC(=O)[C@@H]2CCCN2S(=O)(=O)c2cc(Cl)cc(Cl)c2)C(=O)O)cc1 | – |
| 0.5 | 4.4 | CS(=O)(=O)N1CCC[C@H]1C(=O)N[C@@H](Cc1ccc(OC(=O)N2CCCC2)cc1)C(=O)O (Ms-Pro-Tyr([CO-Pyrrolidide])-OH) | – |

| SMILES | IC50 [2] [nM] | IC50 [3] [nM] | further results |
| --- | --- | --- | --- |
| CN(C(=O)Oc1ccc(C[C@H](NC(=O)[C@]2(C)CCCN2S(=O)(=O)c2cc(Cl)cc(Cl)c2)C(=O)O)cc1)c1ccccc1 | 0.25 | 12.3 | Clp [1]: 38 mL/min/kg; half-life [4]: 12 min |
